Reference: patent US7517874B2 (priority 2007, dated 2009)
Structures can show the parent of a compound that is named as a salt. Where two headings read alike, the source gives them in different places.

Columns and labels:
rat CB2 receptor (rCB2) = target: T1, rat CB2 receptor (rCB2) (Rattus norvegicus, UniProt Q9QZN9); assay: cell-based; type: cell-based; conditions: for +/− RCB2: agonist or inverse agonist at rCB2; for EC50: groups >100 nM-10 μM and >10 μM, cAMP, CHO-K1 rCB2, read-out: EC50 RCB2
T1 sequence (Q9QZN9 1-360): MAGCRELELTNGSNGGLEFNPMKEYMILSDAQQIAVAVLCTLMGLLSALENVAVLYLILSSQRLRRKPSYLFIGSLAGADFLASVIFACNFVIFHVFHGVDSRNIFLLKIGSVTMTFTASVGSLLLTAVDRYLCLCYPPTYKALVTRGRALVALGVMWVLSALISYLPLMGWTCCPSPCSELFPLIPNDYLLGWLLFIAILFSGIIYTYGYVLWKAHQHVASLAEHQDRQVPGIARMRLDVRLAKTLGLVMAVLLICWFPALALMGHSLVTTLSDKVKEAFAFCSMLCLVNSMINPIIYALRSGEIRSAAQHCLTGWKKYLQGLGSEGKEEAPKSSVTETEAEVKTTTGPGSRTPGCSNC
Experimental: (§1) The ability of compounds to act as agonists or inverse agonists at human CB2 and CB1 receptors (hCB2, hCB1, respectively) and at the rat CB2 receptor (rCB2) was determined by measuring changes in intracellular cAMP levels. Chinese Hamster Ovary (CHO-K1) cell lines stably expressing hCB2 (Genebank: X74328) or hCB1 (Genebank: X54937) were purchased from Euroscreen (Gosselies, Belgium). The rat CB2 receptor was expressed from genomic DNA (provided by M. Abood, California Pacific Medical Center) in CHO-K1 cells from expression plasmid vector, pcDNA3.1.
(§2) Cell lines were grown in suspension in EX-CELL 302 CHO Serum-free medium (Sigma, cat #14324C) supplemented with 1% Fetal Bovine Serum, glutamine and non-essential amino-acids under 0.4 mg/mL G418 selection.
(§3) Receptor mediated responses were determined by measuring changes in intracellular cAMP using LANCE cAMP detection kit (cat #AD0264, Perkin Elmer, Wellesley, Mass.) based on time-resolved fluorescence resonance energy transfer (TR-FRET). Changes in cAMP were determined in cells pre-incubated with IBMX (isobutyl methylxanthine) and prestimulated with NKH-477 (a water soluble forskolin derivative, cat #1603, Tocris, Ellisville, Mo.) to increase basal cAMP levels as detailed below.
(§4) On the day of the experiment, cells were spun at low speed for 5 min at room temperature. The supernatant was removed and cells were resuspended in stimulation buffer (Hanks Buffered Salt Solution/5 mM HEPES, containing 0.5 mM IBMX (cat #17018, Sigma) and 0.02% BSA (Perkin-Elmer, cat #CR84-100)). Cell clumps were removed by filtering through cell strainer 40 μm (BD Falcon, Discovery Labware, Bedford, Mass.) and diluted to 2×10^5 cells/mL. Antibody supplied with the LANCE cAMP immunoassay kit was then added according to the manufacturer's instructions. An aliquot of cells was taken for un-induced controls. To the remaining cells was added NKH-477 (a water soluble forskolin derivative, Tocris cat #1603) to a final concentration of 2-8 μM. Cells were then incubated for 30 min at room temperature prior to adding to Proxiplates containing test compounds (final DMSO concentration was less than 0.5%) with a Multidrop bulk dispenser, followed by a sixty minute incubation at room temperature. The response was stopped by addition of the detection mix supplied with the LANCE kit. The reagents were allowed to equilibrate for three hours prior to reading on an Envision multi-mode detector (Perkin-Elmer). TR-FRET was measured using a 330-380 nm excitation filter, a 665 nm emission filter, dichroic mirror 380 nm and Z=1 mm. Cyclic AMP concentrations in each well were back-calculated from a cAMP standard curve run concurrently during each assay. Each plate contained 16 wells of forskolin stimulated cells and 16 wells of forskolin plus CP55,940-treated cells. Cells were treated with 1 μM CP55,940 (Tocris cat. #0949). Concentrations of cAMP were expressed as a percent of the difference of these two groups of wells. Concentration-response data including EC50 (the concentration of compound producing 50% of the maximal response) and intrinsic activity (the percent maximal activation compared to full activation by CP55,940) were determined using a four-parameter non-linear regression algorithm (Xlfit equation 251, IDBS).

[1] = target: human CB1 receptor (hCB1) (Homo sapiens, UniProt P21554); assay: cell-based; type: cell-based
Experimental: as §1, §2, §3, §4

[2] = groups >100 nM-10 μM and >10 μM, cAMP, CHO-K1 hCB1, read-out: EC50 HCB1

Sequence of human CB1 receptor (hCB1) (P21554 whole entry): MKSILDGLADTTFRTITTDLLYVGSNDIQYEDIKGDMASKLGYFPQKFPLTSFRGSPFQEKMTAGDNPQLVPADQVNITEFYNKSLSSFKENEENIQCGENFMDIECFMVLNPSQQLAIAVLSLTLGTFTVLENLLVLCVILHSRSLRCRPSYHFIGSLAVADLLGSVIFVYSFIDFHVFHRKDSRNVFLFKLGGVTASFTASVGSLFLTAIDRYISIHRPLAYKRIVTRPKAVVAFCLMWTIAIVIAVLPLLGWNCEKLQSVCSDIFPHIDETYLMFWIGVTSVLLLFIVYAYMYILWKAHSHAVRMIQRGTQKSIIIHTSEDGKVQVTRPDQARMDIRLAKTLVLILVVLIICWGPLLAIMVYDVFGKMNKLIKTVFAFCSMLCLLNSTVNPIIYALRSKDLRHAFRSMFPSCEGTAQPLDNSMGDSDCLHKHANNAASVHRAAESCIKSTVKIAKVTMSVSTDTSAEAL

Row | Compound | +/− RCB2 (rat CB2 receptor (rCB2)) | EC50 [1, 2] [nM] | EC50 [1] [nM] | EC50 (rat CB2 receptor (rCB2)) [nM]
1 | CC(C)(CO)CNC(=O)c1nc(-c2ccccc2)n2c1CNCC2 [Compound 29, N-(3-hydroxy-2,2-dimethylpropyl)-3-phenyl-5,6,7,8-tetrahydroimidazo[1,5-a]pyrazine-1-carboxamide] | − | > 10000 |  | 
2 | CC(C)(C)OC(=O)N1CCn2c(-c3ccccc3)nc(C(=O)NC3C4(C)CCC(C4)C3(C)C)c2C1 (stereo not shown) [Compound 30, tert-butyl 3-phenyl-1-(1,3,3-trimethylbicyclo[2.2.1]heptan-2-ylcarbamoyl)-5,6-dihydroimidazo[1,5-a]pyrazine-7(8H)-carboxylate] | − |  | > 10000 | 
3 | C[C@H](NC(=O)c1nc(-c2ccccc2)n2c1CN(C(=O)OC(C)(C)C)CC2)c1ccccc1 [Compound 31, (S)-tert-butyl 3-phenyl-1-(1-phenylethylcarbamoyl)-5,6-dihydroimidazo[1,5-a]pyrazine-7(8H)-carboxylate] | − | > 10000 |  | 
4 | CC(C)(C)OC(=O)N1CCn2c(-c3ccccc3)nc(C(=O)Nc3ccccc3)c2C1 [Compound 32, tert-butyl 3-phenyl-1-(phenylcarbamoyl)-5,6-dihydroimidazo[1,5-a]pyrazine-7(8H)-carboxylate] | − |  | > 10000 | 
5 | CC(C)CCNC(=O)c1nc(-c2ccc(Cl)cc2)n2c1CN(C(=O)OC(C)(C)C)CC2 [Compound 33, tert-butyl 3-(4-chlorophenyl)-1-(isopentylcarbamoyl)-5,6-dihydroimidazo[1,5-a]pyrazine-7(8H)-carboxylate] | − | > 10000 |  | 
6 | CC(C)(C)OC(=O)N1CCn2c(-c3ccc(Cl)cc3)nc(C(=O)N[C@H](CO)C(C)(C)C)c2C1 [Compound 34, (S)-tert-butyl 3-(4-chlorophenyl)-1-(1-hydroxy-3,3-dimethylbutan-2-ylcarbamoyl)-5,6-dihydroimidazo[1,5-a]pyrazine-7(8H)-carboxylate] | − |  | > 10000 | 
7 | CC(C)(C)OC(=O)N1CCn2c(-c3ccccc3)nc(C(=O)NN3CCCCC3)c2C1 [Compound 35, tert-butyl 3-phenyl-1-(piperidin-1-ylcarbamoyl)-5,6-dihydroimidazo[1,5-a]pyrazine-7(8H)-carboxylate] | − | > 10000 |  | 
8 | CC(C)(C)OC(=O)N1CCn2c(-c3ccccc3)nc(C(=O)NC3CCCCC3)c2C1 [Compound 36, tert-butyl 1-(cyclohexylcarbamoyl)-3-phenyl-5,6-dihydroimidazo[1,5-a]pyrazine-7(8H)-carboxylate] | − |  | > 10000 | 
9 | C[C@@H](NC(=O)c1nc(-c2ccccc2)n2c1CN(C(=O)OC(C)(C)C)CC2)C1CCCCC1 [Compound 37, (R)-tert-butyl 1-(1-cyclohexylethylcarbamoyl)-3-phenyl-5,6-dihydroimidazo[1,5-a]pyrazine-7(8H)-carboxylate] | − |  | > 10000 | 
10 | CC(C)(C)OC(=O)N1CCn2c(-c3ccccc3)nc(C(=O)NCC3CCOCC3)c2C1 [Compound 38, tert-butyl 3-phenyl-1-((tetrahydro-2H-pyran-4-yl)methylcarbamoyl)-5,6-dihydroimidazo[1,5-a]pyrazine-7(8H)-carboxylate] | − | > 10000 |  | 
11 | CC12CCC(C1)C(C)(C)C2NC(=O)c1nc(-c2ccccc2)n2c1CNCC2 (stereo not shown) [Compound 39, 3-Phenyl-N-(1,3,3-trimethylbicyclo[2.2.1]heptan-2-yl)-5,6,7,8-tetrahydro-imidazo[1,5-a]pyrazine-1-carboxamide HCl] | + |  | > 10000 | 
12 | C[C@H](NC(=O)c1nc(-c2ccccc2)n2c1CNCC2)c1ccccc1 [Compound 40, (S)-3-phenyl-N-(1-phenylethyl)-5,6,7,8-tetrahydroimidazo[1,5-a]pyrazine-1-carboxamide] | + |  | > 10000 | 
13 | O=C(Nc1ccccc1)c1nc(-c2ccccc2)n2c1CNCC2 [Compound 41, N,3-diphenyl-5,6,7,8-tetrahydroimidazo[1,5-a]pyrazine-1-carboxamide] |  | > 10000 |  | > 10000
14 | CC(C)CCNC(=O)c1nc(-c2ccc(Cl)cc2)n2c1CNCC2 [Compound 42, 3-(4-chlorophenyl)-N-isopentyl-5,6,7,8-tetrahydroimidazo[1,5-a]pyrazine-1-carboxamide] | − | > 10000 |  | 
15 | CC(C)(C)[C@@H](CO)NC(=O)c1nc(-c2ccc(Cl)cc2)n2c1CNCC2 [Compound 43, (S)-3-(4-chlorophenyl)-N-(1-hydroxy-3,3-dimethylbutan-2-yl)-5,6,7,8-tetrahydroimidazo[1,5-a]pyrazine-1-carboxamide] | − |  | > 10000 | 
16 | O=C(NN1CCCCC1)c1nc(-c2ccccc2)n2c1CNCC2 [Compound 44, 3-phenyl-N-(piperidin-1-yl)-5,6,7,8-tetrahydroimidazo[1,5-a]pyrazine-1-carboxamide] | − |  | > 10000 | 
17 | C[C@@H](NC(=O)c1nc(-c2ccccc2)n2c1CNCC2)C1CCCCC1 [Compound 45, (R)-N-(1-cyclohexylethyl)-3-phenyl-5,6,7,8-tetrahydroimidazo[1,5-a]pyrazine-1-carboxamide] | − | > 10000 |  | 
18 | O=C(NCC1CCOCC1)c1nc(-c2ccccc2)n2c1CNCC2 [Compound 46, 3-phenyl-N-((tetrahydro-2H-pyran-4-yl)methyl)-5,6,7,8-tetrahydroimidazo[1,5-a]pyrazine-1-carboxamide] | − | > 10000 |  | 
19 | O=C(NC1CCCCC1)c1nc(-c2ccccc2)n2c1CNCC2 [Compound 47, N-cyclohexyl-3-phenyl-5,6,7,8-tetrahydroimidazo[1,5-a]pyrazine-1-carboxamide] |  | > 10000 |  | > 10000
20 | CNC(=O)[C@@H](NC(=O)c1nc(-c2ccccc2)n2c1CN(C)CC2)C(C)(C)C [Compound 48, (S)-N-(3,3-dimethyl-1-(methylamino)-1-oxobutan-2-yl)-7-methyl-3-phenyl-5,6,7,8-tetrahydroimidazo[1,5-a]pyrazine-1-carboxamide] | + |  | > 10000 | 
21 | CNC(=O)[C@@H](NC(=O)c1nc(-c2ccc(Cl)cc2)n2c1CN(C)CC2)C(C)(C)C [Compound 49, (S)-3-(4-chlorophenyl)-N-(3,3-dimethyl-1-(methylamino)-1-oxobutan-2-yl)-7-methyl-5,6,7,8-tetrahydroimidazo[1,5-a]pyrazine-1-carboxamide] | − |  | > 10000 | 
22 | C[C@@H](NC(=O)c1nc(-c2ccccc2)n2c1CN(C)CC2)C(C)(C)C [Compound 50, (R)-N-(3,3-dimethylbutan-2-yl)-7-methyl-3-phenyl-5,6,7,8-tetrahydroimidazo[1,5-a]pyrazine-1-carboxamide] |  | > 10000 |  | > 10000
23 | C[C@H](NC(=O)c1nc(-c2ccccc2)n2c1CN(C)CC2)C(C)(C)C [Compound 51, (S)-N-(3,3-dimethylbutan-2-yl)-7-methyl-3-phenyl-5,6,7,8-tetrahydroimidazo[1,5-a]pyrazine-1-carboxamide] |  | > 10000 |  | > 10000
